Reference: patent US11179384B2, “Treatment of nonalcoholic fatty liver disease” (TAKEDA GMBH, priority 2016, dated 2021)

What was measured:
[1] = tested on: tissue inhibitor of metalloproteases-1 (TIMP-1) gene expression; experiment: Hepatic gene expression in prophylactic NASH mouse model, TIMP-1 (Taqman PCR); type: in vivo; settings: LDLR-KO mice on mCDAA diet; 1, 3 and 10 mg/kg p.o. QD for 7 weeks; liver mRNA
Procedure: Homozygous low-density lipoprotein receptor knockout (LDLR-KO) mice were fed with chow or modified choline deficient, L-amino acid-defined (mCDAA) diet (A08111307, Research Diets, USA). After 1 week under chow or mCDAA diet, the mice were orally dosed with Compound A (1, 3 and 10 mg/5 ml/kg, QD, n=10; suspension in 0.5 w/v % methylcellulose suspension) for 7 weeks.
In addition prophylactic effects of Compound A on hepatic gene expression were evaluated. After total RNA was extracted from liver, cDNA was amplified using High-Capacity cDNA Reverse Transcription Kit (ABI 4368813), and target gene mRNA was measured using Taqman PCR. The target gene expression level was normalized by GAPDH.

Female db/db mice = experiment: HbA1c, 4 weeks treatment in db/db mice; type: in vivo; settings: 28 days, vehicle 9.06%
Procedure: Female db/db mice were purchased from Taconic (Lille Skensved, Denmark) at 5-6 weeks of age and were maintained under standard conditions (5 animals/cage; 12 h light-dark cycle; room temperature of 22±2° C.; relative humidity of 60±15%). All mice had free access to water and standard chow (Provimi Kliba, Kaiseraugst, Switzerland). Four days upon arrival animals were randomized based on body weight and levels of glycated hemoglobin 1c (HbA1c). At 7 weeks of age, animals were treated daily by oral gavage with vehicle (4% methylcellulose) or with Compound A (composed in aqueous 4% methylcellulose) using doses of 1, 3 and 10 mg/kg s.i.d. (doses related to free base). The required dose was applied in a volume of 10 ml/kg body weight. Each dose group consisted of 10 animals. At the end of the treatment period plasma samples were isolated for determination of HbA1c levels. All experimental procedures were conducted according to the German Animal Protection Law.
HbA1c was analyzed from tail-tip-blood (HbA1c determination before treatment) as well as from blood collected from the retro-orbital venous plexus (HbA1c determination after 4 weeks treatment) using the Hemoglobin A1c Test (Siemens, Bad Nauheim, Germany).
Statistical analysis: Values are presented as means±SEM. Statistical differences were determined using one-way-ANOVA followed by a post-hoc analysis with Dunnet's correction (GraphPad Prism).

ob/ob mice = experiment: Insulin tolerance test (insulin sensitivity) in ob/ob mice; type: in vivo; settings: 29 days
Procedure: Male 5 weeks old ob/ob mice (B6.Cg-Lep^ob/J, genotype: Lep^ob/Leb^ob) and age-matched male lean mice (B6.Cg-Lep^ob/J, genotype: Lep^ob/+ * or Leb^+/+) were purchased from Charles River Laboratories, Japan Inc. All mice were fed with a normal chow (CE-2, CLEA Japan) and allowed free access to tap water. The animals were housed in a room with controlled temperature (23±1° C.), humidity (55±10%) and lightning (lights from 07:00 to 19:00). All experiments were approved by the Institutional Animal Care and Use Committee of Shonan Research Center, Takeda Pharmaceutical Company ltd (Japan).
All mice were housed individually in animal cages and used for the study at 7 weeks of age after 2 weeks of acclimation period. Blood samples were collected from the tail vein. Heparin and 2%-EDTA were used to inhibit the coagulation of the blood. Plasma was obtained by centrifugation. Plasma levels of glucose were measured using the automatic analyzer 7180 (Hitachi, Japan). Vehicle (0.5 w/v % methylcellulose, 10 ml/kg) and Compound A (3 and 10 mg/kg suspended in 0.5% methylcellulose solution) were orally administered once daily. After 28 days of administration, the insulin tolerance test (ITT) was performed. Mice were fasted for 6 h and then intraperitoneally administered with insulin (Novolin R, NovoNordisk) at a dose of 0.5 unit/5 ml/kg. Blood samples were collected from tail vein before and 15, 30, 60 and 120 min after the insulin administration. Plasma glucose (PG) level and ITT were measured using the method described above. […] AUC0-120 min of plasma glucose level was calculated using the following formula; [{(0 min PG)+(15 min PG)}×15+{(15 min PG)+(30 min PG)}×15+{(30 min PG)+(60 min PG)}×30+{(60 min PG)+[…]}×60]/2.
Data are expressed as mean and standard deviation (n=8 for ob/ob mice and n=5 for lean mice). The dose response trends of Compound A were assessed by one-tailed Williams' test or Shirley-Williams test. […] For evaluation of the effects of pioglitazone, statistical differences between vehicle and pioglitazone treated groups were analyzed with Student's t-test or Aspin-Welsh test. […]

[2] = tested on: TNFα gene expression in THP-1 cells; experiment: Anti-inflammatory effect in THP-1 cells (LPS-induced TNFα gene expression); type: cell-based, human; settings: PMA-treated THP-1 cells; 0.0001-1 μM, LPS 1 ng/mL, forskolin 0.1 μM, 5 hours
Procedure: Anti-inflammatory effect of Compound A was evaluated by gene expression of TNFα induced by LPS in THP-1 cells, a human monocytic cell line.
THP-1 cells (ATCC) were suspended in RPMI medium containing 10% FBS and 50 ng/mL PMA (2.5×10^5 cells/mL) and seeded on 96 well plates. Fourty-eight hours after the seeding, the medium was exchanged to serum-free RPMI medium. Three hours after the exchange, Compound A (0, 0.0001, 0.001, 0.01, 0.1 and 1 μM), LPS (1 ng/mL), and forskolin (0.1 μM) were added to the THP-1 cells. After the 5-hours incubation, total RNA was extracted from cell lysate using RNeasy 96 Kit (QIAGEN 74182). cDNA was amplified using High-Capacity cDNA Reverse Transcription Kit (ABI 4368813), and target gene mRNA was measured using Taqman PCR. The target gene expression level was normalized by GAPDH. The experiment was repeated 5 times.

## CCOc1cc2c(cc1OC)C(c1ccc(=O)n(C)c1)=N[C@@H]1CC[C@@H](O)C[C@H]21 [Compound A, 5-((2R,4aR,10bR)-9-Ethoxy-2-hydroxy-8-methoxy-1,2,3,4,4a,10b-hexahydro-phenanthridin-6-yl)-1-methyl-1H-pyridin-2-one]
[1]
  hepatic TIMP-1 gene expression (normalized by GAPDH): dose-dependent reduction
Female db/db mice; 1 mg/kg p.o. daily, 1 mg/kg
  mean HbA1c: 7.27%
Female db/db mice; 3 mg/kg p.o. daily, 3 mg/kg
  mean HbA1c: 7.06%
Female db/db mice; 10 mg/kg p.o. daily, 10 mg/kg
  mean HbA1c: 6.16%
ob/ob mice; 10 mg/kg/day p.o., ITT insulin 0.5 unit/kg i.p., vs vehicle
  insulin-stimulated plasma glucose (PG) reduction at 60 min: significantly enhanced
ob/ob mice; 3 and 10 mg/kg/day p.o., ITT, statistical significance at 10 mg/kg/day
  AUC of PG level (AUC0-120 min): dose-dependently decreased
ob/ob mice; 3 and 10 mg/kg/day p.o., ITT, vs vehicle
  declines in plasma glucose level at 60 min from the zero time value: significantly greater
[2]
  LPS-induced TNF-α gene expression in THP-1 cells: dose-dependently suppressed
